Assay [1] has as its system D2-like dopamine receptors. The assay can be described thus: D2-like dopamine receptor binding: displacement of tritiated (S)-sulpiride in rat striatal tissue. Also noted: species or system male Charles River CD rats. The note with it: tritiated (S)-sulpiride 1 nM, 4° C., 40 minutes. On the procedure:
Striatal tissue from the brains of male Charles River CD rats weighing between 140-250 g were homogenised in ice-cold 50 mM Tris-HCl buffer (pH 7.7 when measured at 25° C.) and centrifuged at 40,000 g for 10 minutes. The pellet was resuspended in Tris salts buffer (50 mM Tris-HCl buffer containing 120 mM NaCl, 5 mM KCl, 2 mM CaCl2 and 1 mM MgCl2 with the addition of 6 mM ascorbic acid; pH 7.7 when measured at 25° C.), and again centrifuged at 40,000 g for 10 minutes. The final pellet was stored at -80° C. Before each test the pellet was resuspended in Tris salts buffer (equivalent to 2 mg wet weight of tissue/ml). Aliquots (720 μl; equivalent to 1.44 mg wet weight of tissue/tube) of this suspension were then added to tubes containing the ligand (40 μl; 1 nM) and Tris salts buffer (40 μl; total binding) or spiroperidol (40 μl; 10 nM; non-specific binding) or test compound (40 μl; at a single concentration of 10^-6 M or at 6 concentrations ranging from 10^-11 -10^-4 M). The ligand was tritiated (S)-sulpiride and the mixture was incubated at 4° C. for 40 minutes before the incubation was terminated by rapid filtration.
The filters were washed with ice-cold Tris-HCl buffer and dried. The filters were punched out in to vials, scintillation fluid added and were left for about 20 hours before being counted by scintillation spectrophotometry. The percentage displacement of specific binding of the tritiated ligand was calculated for the single concentration (10^-6 M) of test compound. Displacement curves were then produced over a range of concentrations for those compounds which displaced ≥50% of specific binding of the tritiated ligand at 10^-6 M. The concentration which gave a 50% inhibition of specific binding (IC50) was obtained from the curve. The inhibition coefficient Ki was then calculated using the formula [formula]
(§1) in which [ligand] is the concentration of the tritiated ligand used and KD is the equilibrium dissociation constant for the ligand.
(§2) The % figures in Table 1 are for % displacement at 10^-6 M.

The target in another assay is T1, 5-HT1A receptors (Rattus norvegicus, UniProt P19327).
T1 construct: Hippocampal tissue from the brains of male Charles River CD rats; from tissue; host or cells: hippocampal tissue from brains of male Charles River CD rats
T1 sequence (P19327 1-422): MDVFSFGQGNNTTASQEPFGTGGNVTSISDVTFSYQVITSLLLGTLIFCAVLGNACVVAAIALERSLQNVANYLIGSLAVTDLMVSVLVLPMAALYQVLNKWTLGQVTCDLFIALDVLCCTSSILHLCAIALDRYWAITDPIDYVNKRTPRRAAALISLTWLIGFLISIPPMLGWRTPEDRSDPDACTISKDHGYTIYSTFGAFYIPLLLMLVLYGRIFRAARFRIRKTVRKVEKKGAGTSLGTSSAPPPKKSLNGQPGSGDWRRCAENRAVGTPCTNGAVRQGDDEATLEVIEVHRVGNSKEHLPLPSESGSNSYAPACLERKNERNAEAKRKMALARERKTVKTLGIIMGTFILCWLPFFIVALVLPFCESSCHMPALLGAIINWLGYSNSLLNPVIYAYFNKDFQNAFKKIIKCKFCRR
The assay can be described thus: 5-HT1A receptor binding: displacement of [3H]8-hydroxy-2-(dipropylamino)tetralin in rat hippocampal tissue. The note with it: 0.5 h, 10^-6 M, [3H]-OH-DPAT 2 nM, 25° C., 30 minutes, read-out: % displacement at 10^-6 M, 5-HT1A (column headed Ki (nM) value for 5-HT1A). Further details: species or system male Charles River CD rats. On the procedure:
Hippocampal tissue from the brains of male Charles River CD rats weighing between 150-250 g were homogenised in ice-cold 50 mM Tris-HCl buffer (pH 7.7) when measured at 25° C., 1:40 w/v) and centrifuged at 30,000 g at 4° C. for 10 minutes. The pellet was rehomogenised in the same buffer, incubated at 37° C. for 10 minutes and centrifuged at 30,000 g at 4° C. for 10 minutes. The final pellet was resuspended in 50 mM Tris-HCl buffer (pH 7.7) containing 4 mM CaCl2, 0.1% L-ascorbic acid and 10 μM pargyline hydrochloride (equivalent to 6.25 mg wet weight of tissue/ml) and used immediately in the binding assay. Aliquots (400 μl; equivalent to 2.5 mg wet weight of tissue/tube) of this suspension were added to tubes containing the ligand (50 μl; 2 nM) and distilled water (50 μl; total binding) or 5-HT (50 μl; […]; non-specific binding) or test compound (50 μl; at a single concentration of 10^-6 M or at 10 concentrations ranging from 10^-11 -10^-3 M). The ligand was [^3 H]8-hydroxy-2-(dipropylamino)tetralin ([^3 H]-OH-DPAT) and the mixture was incubated at 25° C. for 30 minutes before the incubation was terminated by rapid filtration.
The filters were washed with ice-cold Tris-HCl buffer and dried. The filters were punched out into vials, scintillation fluid added and radioactivity determined by liquid scintillation counting. The percentage displacement of specific binding of the tritiated ligand was calculated for the single concentration (10^-6 M) of test compound. Displacement curves were then produced for those compounds which displaced ≥50% of specific binding of the tritiated ligand at 10^-6 M using a range of concentrations of the compound. The concentration which gave 50% inhibition of specific binding (IC50) was obtained from the curve. The inhibition coefficient Ki was then calculated using the formula [formula]
as §1, §2
Background: Loss of bound radioactivity is the signal in a displacement assay; it reports binding, not function.

Take `O=S(=O)(NCC1CCN(C[C@H]2COc3ccc4scc(Cl)c4c3O2)CC1)c1ccccn1` [Example 1, (S)-N{[1-(9-chloro-2,3-dihydrothieno[3,2-f][1,4]benzodioxin-2-ylmethyl)piperid-4-yl]methyl}pyridine-2-sulphonamide]: the “% displacement at 10^-6 M, D2-like (column headed Ki (nM) value for D2-like)” value in assay [1] is on record as 106%. Moreover, the inhibition at 1 µM at 5-HT1A receptors was found to be 98%.
For `O=S(=O)(NCC1CCN(C[C@H]2COc3ccc4[nH]ccc4c3O2)CC1)c1ccccn1` [Example 2, (S)-N-{[1-(2,3-dihydro-7H-1,4-dioxino[2,3-e]indol-2-ylmethyl)piperid-4-yl]methyl}pyridine-2-sulphonamide], in that order: 105% and 99%.
Taken in the same sequence, the figures for `CC(=O)Nc1ccc(S(=O)(=O)NCC2CCN(C[C@H]3COc4ccc5[nH]ccc5c4O3)CC2)cc1` [Example 3, (S)-4-acetamido-N-{[1-(2,3-dihydro-7H-1,4-dioxino[2,3-e]indol-2-ylmethyl)piperid-4-yl]methyl}benzenesulphonamide] were 105% and 97%.
